Patent publication US4680285A, “Treatment of malignant tumors with 2-(β-D-ribofuranosylthiazole-4-carboxamide related compounds” (priority 1985, dated 1987)
“Also recorded” adds a separate entry of the source.

Key:
L-1210 lymphoid leukemia = L-1210 lymphoid leukemia in vivo, mean survival, 30-day test (Example 9); set-up: species or system CD2 F1 male mice
Excerpt: For Example 9a and 9b, CD2 F1 male mice were used and challenged with L-1210 lymphoid leukemia. […] The test period was for thirty days. Test results are expressed as T/C as per Example 5.
In Example 9a, 24 control animals were used and six test animals at each drug dose level as is indicated below in table 9a. For both the control group and the drug test group, tumors were induced by IP inoculation of tumor seed cells on day zero followed by initiation of drug treatment on day one. For example 9a, water was used as the drug vehicle and for Examples 9b saline was used as the drug vehicle.
In both the control groups and the drug treated groups in Examples 9a and 9b, the test animals were inoculated on day zero IP with 10^6 seed cells of L-1210 lymphoid leukemia. For Example 9a, drug treatment was started on day one and compound 1 given once daily for nine days. Day five was utilized as the cutoff date for death attributable to toxicity of the drug. […] Efficacy of treatment was determined by comparing mean survival time of drug treated animals with mean survival time of the control animals and is expressed as percentage increase of treated animals/control animals (T/C) as per Example 5.
In this example, the drug treated animals were injected IP with dose levels noted in table 5a below. Six animals were treated at each dose level. No control animals survived beyond day ten with a mean death date of day 9.7.
In this example, drug treated animals were injected IP with the dose level noted in table 5b below. Ten animals were treated at each dose level. No control animals survived beyond day ten with a mean death date of day 9.0.

Lewis lung carcinoma = Lewis lung carcinoma (IV inoculated) in vivo, median survival, 60-day test (Example 10); set-up: species or system B6 D2 F1 male mice; conditions: for Treated Group Survival Time (median): assigned 60 at end of test, control 18.4; for Percent Treated Animals/Control Animals: based on assigned 60 days
Excerpt: For example 10, B6 D2 F1 male mice were used and challenged with Lewis lung carcinoma.
In Example 10, forty control animals were used and ten test animals each at dose levels indicated below in Table 6. For both the control group and the drug treated group, tumors were induced by IV injection on day zero followed by initiating of drug treatment on day one. For example 10 water was used as the drug vehicle.
In both the control group and the drug treated group in Example 10, the animals were inoculated on day zero with a homogenate of 10^6 seed cells of Lewis lung carcinoma. For Example 10, drug treatment was started on day one and compound 1 given once daily for nine days. Day five was utilized as the cut-off date for details attributable to toxicity of the drug. […] Efficacy of treatment was determined by comparing median survival time of drug treated animals with median survival time of the control animals and is expressed as percentage increase of treated animals/control animals (T/C) as per Example 5.
The test period was for sixty days and at the end of the sixty day period all animals surviving in the test groups were evaluated as either cured, no-takes, or tumor survivors as per Example 5 above.
In this example, the drug treated animals were injected IP with the dose level noted in table 6 below. Ten animals were treated at each dose level. No control animals survived beyond day 23 with a median death data of day 18.4. […] Because of this fact, the T/C ratio noted in table 6 below is a constant figure based on assigning survival day rate of sixty to the treated animals and a median death date of 18.4 days to the control animals.

malignant tumors = assay: antitumor activity in vivo (general statements); conditions: summary statements
[1] = toxicity in tumor bearing animals; format: in vivo; conditions: dosages up to 2000 mg/Kg, toxicity day
Excerpt: In a host which has been diagnosed as being terminally ill with a malignant tumor excessive amounts beyond any toxicity range might be indicated if there is any probability of cure of the terminally ill host as is commonly practiced in current cancer chemotherapy.

[2] = blood brain barrier crossing after IP injection (Example 12); format: in vivo, AKD2 F1 mice; conditions: inferred from activity on intracranial tumor after IP injection
Excerpt: For Example 12, compound 1 was given IP to a group of AKD2 F1 mice which were inflicted by intercranial inoculation with Lewis lung seed cells to establish brain tumors.
For this test, 32 control animals were used and no control animals survived beyond day eleven with a mean death data of day 9.6 for the controls. Water was used as the drug vehicle. For both the control group and the test group, tumors were induced on day zero with initiation of drug treatment on day one where compound 1 was given once daily for nine days. Test results are expressed as T/C as per example 5.

[3] = test system: type 1 herpes simplex virus; conditions: cited from earlier work
type 3 rhinovirus = conditions: cited from earlier work
virus = conditions: cited from earlier work
viruses = conditions: test viruses; cited from earlier work
[4] = 100 mg/Kg, ten animals, sixty days

## NC(=O)c1csc([C@@H]2O[C@H](CO)[C@@H](O)[C@H]2O)n1 [Compound 1, 2-β-D-Ribofuranosylthiazole-4-Carboxamide]
L-1210 lymphoid leukemia; Ex. 9a, water, 25 mg/Kg IP once daily x9
  Percent Treated Animals/Control Animals: 131%
L-1210 lymphoid leukemia; Ex. 9a, water, 25 mg/Kg IP once daily x9, control 9.7
  Treated Group Survival Time (mean): 12.8 days
L-1210 lymphoid leukemia; Ex. 9a, water, 50 mg/Kg IP once daily x9
  Percent Treated Animals/Control Animals: 136%
L-1210 lymphoid leukemia; Ex. 9a, water, 50 mg/Kg IP once daily x9, control 9.7
  Treated Group Survival Time (mean): 13.2 days
L-1210 lymphoid leukemia; Ex. 9a, water, 100 mg/Kg IP once daily x9
  Percent Treated Animals/Control Animals: 144%
L-1210 lymphoid leukemia; Ex. 9a, water, 100 mg/Kg IP once daily x9, control 9.7
  Treated Group Survival Time (mean): 14.0 days
L-1210 lymphoid leukemia; Ex. 9a, water, 200 mg/Kg IP once daily x9
  Percent Treated Animals/Control Animals: 157%
L-1210 lymphoid leukemia; Ex. 9a, water, 200 mg/Kg IP once daily x9, control 9.7
  Treated Group Survival Time (mean): 15.3 days
L-1210 lymphoid leukemia; Ex. 9a, water, 400 mg/Kg IP once daily x9
  Percent Treated Animals/Control Animals: 192%
L-1210 lymphoid leukemia; Ex. 9a, water, 400 mg/Kg IP once daily x9, control 9.7
  Treated Group Survival Time (mean): 18.7 days
L-1210 lymphoid leukemia; Ex. 9b, saline, 100 mg/Kg IP
  Percent Treated Animals/Control Animals: 183%
L-1210 lymphoid leukemia; Ex. 9b, saline, 100 mg/Kg IP, control 9.0
  Treated Group Survival Time (mean): 16.5 days
L-1210 lymphoid leukemia; Ex. 9b, saline, 200 mg/Kg IP
  Percent Treated Animals/Control Animals: 182%
L-1210 lymphoid leukemia; Ex. 9b, saline, 200 mg/Kg IP, control 9.0
  Treated Group Survival Time (mean): 16.4 days
L-1210 lymphoid leukemia; Ex. 9b, saline, 400 mg/Kg IP
  Percent Treated Animals/Control Animals: 224%
L-1210 lymphoid leukemia; Ex. 9b, saline, 400 mg/Kg IP, control 9.0
  Treated Group Survival Time (mean): 20.2 days
L-1210 lymphoid leukemia; Ex. 9b, saline, 600 mg/Kg IP
  Percent Treated Animals/Control Animals: 230%
L-1210 lymphoid leukemia; Ex. 9b, saline, 600 mg/Kg IP, control 9.0
  Treated Group Survival Time (mean): 20.7 days
L-1210 lymphoid leukemia; Ex. 9b, saline, 800 mg/Kg IP
  Percent Treated Animals/Control Animals: 171%
L-1210 lymphoid leukemia; Ex. 9b, saline, 800 mg/Kg IP, control 9.0
  Treated Group Survival Time (mean): 15.4 days
L-1210 lymphoid leukemia; Example 9
  activity against L-1210 lymphoid leukemia: active against L-1210 lymphoid leukemia
L-1210 lymphoid leukemia; Example 9b, day five cut-off
  mortality attributed to drug toxicity: only one instance
L-1210 lymphoid leukemia; L-1210
  DN 2 criteria of the National Cancer Institute: successfully passed
Lewis lung carcinoma; 25 mg/Kg
  animals surviving the sixty day test period: all test animals survived
Lewis lung carcinoma; 25 mg/Kg IP once daily x9
  Treated Group Survival Time (median): 60 days
  Percent Treated Animals/Control Animals: 326%
Lewis lung carcinoma; 50 mg/Kg IP once daily x9
  Treated Group Survival Time (median): 60 days
  Percent Treated Animals/Control Animals: 326%
Lewis lung carcinoma; 50 mg/Kg, ten animals
  day of the one death: 47 days
Lewis lung carcinoma; 50 mg/Kg, ten animals, sixty days
  animals judged as cured: nine cures
Lewis lung carcinoma; 100 mg/Kg IP once daily x9
  Treated Group Survival Time (median): 60 days
  Percent Treated Animals/Control Animals: 326%
Lewis lung carcinoma; 100 mg/Kg, ten animals
  day of the one death: 46 days
Lewis lung carcinoma; [4]
  animals judged as cured: eight cures
  tumor survivors: one tumor survivor
Lewis lung carcinoma; 200 mg/Kg
  animals surviving the sixty day test period: all test animals survived
Lewis lung carcinoma; 200 mg/Kg IP once daily x9
  Treated Group Survival Time (median): 60 days
  Percent Treated Animals/Control Animals: 326%
Lewis lung carcinoma; 200 mg/Kg, ten animals, sixty days
  animals judged as cured: all ten
Lewis lung carcinoma; 400 mg/Kg
  animals surviving the sixty day test period: all test animals survived
Lewis lung carcinoma; 400 mg/Kg IP once daily x9
  Treated Group Survival Time (median): 60 days
  Percent Treated Animals/Control Animals: 326%
Lewis lung carcinoma; 400 mg/Kg, ten animals, sixty days
  animals judged as cured: all ten
Lewis lung carcinoma; 25-400 mg/Kg, day five cut-off
  mortality attributable to drug toxicity: no mortality attributable to drug toxicity
Lewis lung carcinoma; Example 10
  activity against Lewis lung carcinoma: effective antitumor agent; also recorded: active antitumor agent; also recorded: outstanding activity
  median survival time vs control: dramatically extended
Lewis lung carcinoma; Lewis lung carcinoma
  DN 2 criteria of the National Cancer Institute: successfully passed
Lewis lung carcinoma; all but one dose level
  cures at cessation of the test period: at least 80%
Lewis lung carcinoma; at two dose levels (200 and 400 mg/Kg)
  cures at cessation of the test period: 100%
Malignant tumors
  antitumor activity: effective in vivo antitumor agents
Malignant tumors; listed as 2-β-D-ribofuranosylthiazole-4-carboxamide
  antitumor activity: positive antitumor activity; also recorded: significant antitumor activity in vivo
[1]
  deaths attributed to toxicity: no deaths of the animals were attributed to the toxicity
[2]
  crossing of the blood brain barrier: successful crossing of the blood brain barrier; also recorded: successfully crosses the blood brain barrier
[3]
  in vitro antiviral activity: only moderate
Type 3 rhinovirus
  in vitro antiviral activity: only moderate
virus; in vivo antiviral tests
  number of deaths of test animals vs placebo control animals: equal to or exceeded the number of deaths of the placebo control animals
virus; in vivo
  in vivo antiviral activity: no useful in vivo antiviral activity; also recorded: negative
viruses
  spectrum of in vitro antiviral activity, preliminary: marginal in vitro activity
